Measured values: US20230057130A1, “FORMULATIONS OF 19-NOR C3,3-DISUBSTITUTED C21-N-PYRAZOLYL STEROID AND METHODS OF USE THEREOF” (priority 2020, published 2023)
≈ marks a conversion by molar mass, not a printed value. Where “and” joins values, the source holds several entries; their conditions need not be identical. Equal values may be shown once. Read-outs that look alike come from different tables or passages of the source.

Assays:
[1] = Particle size distribution by laser diffraction (Malvern Mastersizer 2000); assay type: physicochemical; conditions: for Particle Size D10 / Particle Size D50 / Particle Size D90: laser diffraction
Excerpt: As used herein, the term “particle size” or “particle size distribution (PSD)” when referring to the compound of formula (I) is a list of values that defines the relative amount, typically by mass or volume, of particles present according to size. The distribution data may be reported as cumulative distributions and/or as density distributions by volume or mass such as D(v, 0.1), D(v, 0.5) and D(v, 0.9). In various embodiments, the particle size of a compound of formula (I) may be measured using laser diffraction techniques (e.g., dispersing particles in a sample and illuminating the sample in a collimated laser-beam by scattering light over a range of angles). The large particles generate a high scattering intensity at relatively narrow angles to the incident beam, while the smaller particles produce a lower intensity signal but at much wider angles. Using an array of detectors, laser-diffraction analyzers record the pattern of scattered light produced by the sample. With the application of an appropriate model of light behavior the particle-size distribution of the sample can be determined from the scattering data, via a deconvolution step.
The particle size distribution of Compound 1 was measured using a laser diffraction method. A sample of Compound 1 was either dispersed in water or wetted and dispersed in 0.2% w/v Tween 80 in water to a final concentration spanning approximately 2.5 to 60 mg/mL. Using a Malvern Mastersizer 2000 with a Hydro 2000S sample dispersion unit the obscuration was adjusted to between 10 and 30%. The stir speed was adjusted to 2250-2500 rpm, pre-measurement delay to approximately 30 s, sample measurement time to around 10-15 s, background measurement time to around 10-15 s and the particle shape assumed to be irregular. The samples were at a concentration between 0.0032-0.0044% vol and had specific surface area between 1.65 and 2.10 m^2/g, a surface weighted mean between 2.87 and 3.64 μm, and a volume weighed mean between 3.62 and 4.67 μm. The measurements were obtained using the Mie scattering model (material refractive index=1.520, dispersant refractive index=1.330, absorption=0.001 or 0.1) with normal sensitivity.

[2] = Pharmacokinetic profile of Form C of Compound 1 (micronized and un-micronized) in rat, oral gavage; assay type: in vivo; conditions: male Sprague-Dawley rats, oral gavage 15 mg/kg; for AUClast / Cmax / Tmax: suspended in 2% aqueous PVP-VA, 15 mg/kg
Method: Two groups, each with three male Sprague-Dawley rats, received an oral gavage dose of Compound 1 (un-micronized Form C or micronized Form C) suspended in 2% aqueous PVP-VA at a concentration and volume intended to achieve a target dose level of 15 mg/kg.
Serial blood samples were collected from each animal at 0.25, 0.5, 1, 2, 4, 6, 8 and 24 hours after dosing. Blood samples, which were collected into tubes containing K2EDTA, were processed for plasma. Plasma samples were analyzed for Compound 1 by LC-MS/MS. Non-compartmental pharmacokinetic parameter estimates were calculated from the plasma concentration-time data for each animal. […] In Table 8 the subscripts to AUC last and inf refer to that AUC to the last sampling time point and extrapolated to infinite time, respectively.

[3] = Solubility of the compound of formula (I) in aqueous media; assay type: physicochemical
Excerpt: The compound of formula (I) belongs in the high permeability, poor solubility drug classification (BCS 2) described in the Biopharmaceutics Classification System (BCS). In the improved widely accepted Developability Classification System (DCS) discussed by Butler and Dressman, the high permeability low solubility category is further divided into two classifications. Specifically, the ratio of the dose to the solubility of the drug in FaSSIF can be used to predict the extent of human absorption. Class 2a describes compounds that have good permeability and poor solubility with a smaller dose to solubility ratio. Class 2b describes compounds that have a higher dose to solubility ratio and likely will be incompletely absorbed unless the drug is formulated in an already solubilized form, and therefore might present a major challenge to the formulator. […] That is, even for a dose of 10 mg about only 1.2% of the dose of the drug may dissolve in a glass of water or FaSSIF. For Class 2b compounds the system predicts that particle reduction should have no impact on bioavailability. Martinez and Amidon offer: “In the case of solubility-limited absorption particle size exerts minimal effect on the fraction of drug absorbed. In this situation, fraction of drug absorbed can only be improved by enhancing drug solubility (e.g., via inclusion of surfactants in the drug formulation.) Conversely particle size exerts its greatest effect when solubility is not a problem.” (Martinez and Amidon; J. Clin. Pharmacol.; 2002; 42; 620-643). In light of the very large […] for the compound of formula (I), oral absorption of the compound of formula (I) is solubility limited, and reduction of particle size should not affect its bioavailability.

[4] = lot used for 8 kg blend batch, 20 mg dose strength
[5] = lot used for 12 kg blend batch, 30 mg dose strength
[6] = lot used for 34.7 kg blend batch, 20 mg dose strength
[7] = lot used for 52 kg blend batch, 30 mg dose strength

Row | Compound | Particle Size D10 [1] [μm] | Particle Size D50 [1] | Particle Size D90 [1] | also measured
1 | C[C@@]1(O)CC[C@H]2[C@H](CC[C@@H]3[C@@H]2CC[C@]2(C)[C@@H](C(=O)Cn4cc(C#N)cn4)CC[C@@H]32)C1 [Un-micronized Form C of Compound 1d] | 5.6 | 16.2 μm | 37.7 μm | –
2 | C[C@@]1(O)CC[C@H]2[C@H](CC[C@@H]3[C@@H]2CC[C@]2(C)[C@@H](C(=O)Cn4cc(C#N)cn4)CC[C@@H]32)C1 [Un-micronized Form C of Compound 1] | – | – | – | AUClast [2]: 979 ng·h/mL; Cmax [2]: 83.6 ng/mL; Tmax ([2]; male, Sprague-Dawley, rat, plasma, po, read-out: Tmax): 6.67 h; AUC(0-inf) ([2]; rat, plasma, extrapolated to infinite time): 854 ng·h/mL
3 | C[C@@]1(O)CC[C@H]2[C@H](CC[C@@H]3[C@@H]2CC[C@]2(C)[C@@H](C(=O)Cn4cc(C#N)cn4)CC[C@@H]32)C1 [Un-micronized Form C of Compound 1c] | 3.6 | 16.0 μm | 35.5 μm | –
4 | C[C@@]1(O)CC[C@H]2[C@H](CC[C@@H]3[C@@H]2CC[C@]2(C)[C@@H](C(=O)Cn4cc(C#N)cn4)CC[C@@H]32)C1 [Micronized Form C of Compound 1b] | 0.8 | 2.1 μm | 5.2 μm | –
5 | C[C@@]1(O)CC[C@H]2[C@H](CC[C@@H]3[C@@H]2CC[C@]2(C)[C@@H](C(=O)Cn4cc(C#N)cn4)CC[C@@H]32)C1 [Un-micronized Form C of Compound 1a] | 3.1 | 11.8 μm | 27.1 μm | –
6 | C[C@@]1(O)CC[C@H]2[C@H](CC[C@@H]3[C@@H]2CC[C@]2(C)[C@@H](C(=O)Cn4cc(C#N)cn4)CC[C@@H]32)C1 [Micronized Form C of Compound 1c] | 1.1 | 2.7 μm | 5.4 μm | –
7 | C[C@@]1(O)CC[C@H]2[C@H](CC[C@@H]3[C@@H]2CC[C@]2(C)[C@@H](C(=O)Cn4cc(C#N)cn4)CC[C@@H]32)C1 [Compound 1, 1-(2-((3R,5R,8R,9R,10S,13S,14S,17S)-3-hydroxy-3,13-dimethylhexadecahydro-1H-cyclopenta[a]phenanthren-17-yl)-2-oxoethyl)-1H-pyrazole-4-carbonitrile] | – | – | – | solubility in aqueous media [3]: practically insoluble; ratio of the dose to solubility in FaSSIF ([3]; 10 mg dose): greater than 10,000; ratio of the dose to solubility in FaSSIF ([3]; 20 mg dose): > 20,000; ratio of the dose to solubility in FaSSIF ([3]; 30 mg dose): > 30,000; ratio of the dose to solubility in FaSSIF ([3]; 90 mg dose): > 90,000; ratio of the dose to solubility in FaSSIF ([3]; 100 mg dose): > 100,000; part of the dose that may dissolve in a glass of water or FaSSIF ([3]; dose of 10 mg): ~1.2%; Biopharmaceutics Classification System (BCS) classification ([3]; high permeability, poor solubility): BCS 2; solubility ([3]; water): 0.8 to 3 µg/mL (≈ 1.95 to 7.32 µM)
8 | C[C@@]1(O)CC[C@H]2[C@H](CC[C@@H]3[C@@H]2CC[C@]2(C)[C@@H](C(=O)Cn4cc(C#N)cn4)CC[C@@H]32)C1 [Micronized Form C of Compound 1] | – | 3.5 μm and 3.2 μm and 4.1 μm and 3.7 μm | 6.6 μm and 6.1 μm and 8.0 μm and 8.9 μm | Particle Size Distribution D10 [1, 4]: 1.7; Particle Size Distribution D50 [1, 4]: 3.2; Particle Size Distribution D90 [1, 4]: 6.1; Particle Size Distribution D10 [1, 5]: 1.7; Particle Size Distribution D50 [1, 5]: 3.2; Particle Size Distribution D90 [1, 5]: 6.1; Particle Size Distribution D10 [1, 6]: 1.8; Particle Size Distribution D50 [1, 6]: 3.3; Particle Size Distribution D90 [1, 6]: 6.5; Particle Size Distribution D10 [1, 7]: 2.1; Particle Size Distribution D50 [1, 7]: 4.1; Particle Size Distribution D90 [1, 7]: 8.0; AUClast [2]: 3647 ng·h/mL; Cmax [2]: 308 ng/mL; Tmax [2]: 6.00 h
9 | C[C@@]1(O)CC[C@H]2[C@H](CC[C@@H]3[C@@H]2CC[C@]2(C)[C@@H](C(=O)Cn4cc(C#N)cn4)CC[C@@H]32)C1 [Micronized Form C of Compound 1d] | 1.0 | 2.4 μm | 4.6 μm | –
10 | C[C@@]1(O)CC[C@H]2[C@H](CC[C@@H]3[C@@H]2CC[C@]2(C)[C@@H](C(=O)Cn4cc(C#N)cn4)CC[C@@H]32)C1 [Micronized Form A of Compound 1] | 1.5 | 4.2 μm | 11.1 μm | –
11 | C[C@@]1(O)CC[C@H]2[C@H](CC[C@@H]3[C@@H]2CC[C@]2(C)[C@@H](C(=O)Cn4cc(C#N)cn4)CC[C@@H]32)C1 [Micronized Form C of Compound 1a] | 0.9 | 2.4 μm | 6.1 μm | –
12 | C[C@@]1(O)CC[C@H]2[C@H](CC[C@@H]3[C@@H]2CC[C@]2(C)[C@@H](C(=O)Cn4cc(C#N)cn4)CC[C@@H]32)C1 [Un-micronized Form C of Compound 1b] | 3.2 | 14.7 μm | 33.6 μm | –
